Experimental data from US11505782B2 (priority 2018, dated 2022).
Where “and” joins values, the source holds several entries; their conditions need not be identical. Identical values can stand only once. Like-named read-outs stand apart in the source and are kept apart here.

How the values were obtained:
[1] = target: T1, complement C3 (Homo sapiens, UniProt P01024); format: cell-based; conditions: 72 h
[2] = target: T1, complement C3; format: cell-based; conditions: 48 h
[3] = system: PC3 human prostate cancer cells; format: cell-based
[4] = system: JAK1/JAK2; format: cell-based, human
[5] = system: PC3 human prostate cancer cells; format: cell-based; remark: listed apart in the source

T1 sequence (P01024 672-1663): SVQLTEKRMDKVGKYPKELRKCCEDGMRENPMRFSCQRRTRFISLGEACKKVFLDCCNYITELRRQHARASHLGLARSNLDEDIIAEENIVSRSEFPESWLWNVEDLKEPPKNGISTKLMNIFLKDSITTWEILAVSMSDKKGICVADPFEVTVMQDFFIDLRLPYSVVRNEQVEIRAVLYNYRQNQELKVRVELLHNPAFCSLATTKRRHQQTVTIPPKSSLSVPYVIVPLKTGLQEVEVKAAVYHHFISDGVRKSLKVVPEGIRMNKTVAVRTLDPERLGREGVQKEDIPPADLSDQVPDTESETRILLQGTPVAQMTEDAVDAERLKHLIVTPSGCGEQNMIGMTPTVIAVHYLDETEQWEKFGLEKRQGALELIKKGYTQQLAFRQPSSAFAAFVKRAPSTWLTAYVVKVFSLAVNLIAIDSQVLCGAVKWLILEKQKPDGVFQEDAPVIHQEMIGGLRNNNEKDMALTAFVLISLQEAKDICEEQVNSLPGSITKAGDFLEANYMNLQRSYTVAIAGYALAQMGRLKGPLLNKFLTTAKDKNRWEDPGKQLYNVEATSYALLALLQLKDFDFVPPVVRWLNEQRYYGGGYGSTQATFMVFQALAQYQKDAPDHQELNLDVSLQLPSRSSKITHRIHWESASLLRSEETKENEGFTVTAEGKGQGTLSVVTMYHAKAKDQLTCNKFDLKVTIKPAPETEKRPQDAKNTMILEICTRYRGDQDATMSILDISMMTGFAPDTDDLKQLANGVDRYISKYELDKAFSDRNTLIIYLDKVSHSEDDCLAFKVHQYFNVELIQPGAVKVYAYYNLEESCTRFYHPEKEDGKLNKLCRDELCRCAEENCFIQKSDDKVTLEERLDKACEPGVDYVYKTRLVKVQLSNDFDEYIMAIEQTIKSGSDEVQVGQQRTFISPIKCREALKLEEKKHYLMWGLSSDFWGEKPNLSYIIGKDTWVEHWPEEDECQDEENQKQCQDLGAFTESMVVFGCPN
T1 sequence (P01024 23-667): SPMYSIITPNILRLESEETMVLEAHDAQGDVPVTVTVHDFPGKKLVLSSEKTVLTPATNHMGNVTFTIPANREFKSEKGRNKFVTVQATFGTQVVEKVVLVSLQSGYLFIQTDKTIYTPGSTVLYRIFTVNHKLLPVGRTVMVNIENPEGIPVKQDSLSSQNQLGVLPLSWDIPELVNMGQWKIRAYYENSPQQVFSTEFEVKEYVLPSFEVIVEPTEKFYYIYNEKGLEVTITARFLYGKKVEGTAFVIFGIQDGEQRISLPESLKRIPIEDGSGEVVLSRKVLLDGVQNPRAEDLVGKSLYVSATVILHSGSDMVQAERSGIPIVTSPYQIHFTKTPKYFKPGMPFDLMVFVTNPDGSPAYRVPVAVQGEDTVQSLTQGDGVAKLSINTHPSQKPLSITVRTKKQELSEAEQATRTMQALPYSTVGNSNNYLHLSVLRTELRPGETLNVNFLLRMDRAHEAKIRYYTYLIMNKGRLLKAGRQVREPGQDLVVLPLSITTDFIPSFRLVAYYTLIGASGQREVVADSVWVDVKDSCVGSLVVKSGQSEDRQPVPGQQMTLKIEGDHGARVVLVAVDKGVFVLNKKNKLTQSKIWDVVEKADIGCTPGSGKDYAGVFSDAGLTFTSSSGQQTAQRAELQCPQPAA

| SMILES | % Increase in Fluorescence [1] [%] | Average Fluorescence Intensity Density [1] | increase of fluorescent signal compared to control cells [1] [%] | Average Fluorescence Intensity Density [2] | increase of fluorescence intensity vs serum only control [2] [%] | increase of fluorescence intensity (partial reversal of complement-mediated suppression of virus spreading) [3] [%] | Average Fluorescence Intensity Density ([3]; 48 h) | Average Fluorescence Intensity Density [4] | Average Fluorescence Intensity Density [5] |
| --- | --- | --- | --- | --- | --- | --- | --- | --- | --- |
| CC[C@H](C)[C@H](N)C(=O)N[C@H]1CSSC[C@@H](C(=O)N[C@H](C(N)=O)[C@@H](C)O)NC(=O)[C@H](CCCN=C(N)N)NC(=O)[C@H](Cc2cnc[nH]2)NC(=O)[C@H](Cc2cnc[nH]2)NC(=O)CNC(=O)[C@H](Cc2c[nH]c3ccccc23)NC(=O)[C@H](CC(=O)O)NC(=O)[C@H](CCC(N)=O)NC(=O)[C@H](C(C)C)NC(=O)[C@H](C(C)C)NC1=O [compstatin] | 50 | 0.09 | 50 | 0.0945 and 0.0670 and 0.0920 | 27.7 | 28.5 | 36.4 |  |  |
| N#CC[C@H](C1CCCC1)n1cc(-c2ncnc3[nH]ccc23)cn1 [Ruxolitinib] |  |  |  |  |  |  |  | 0.074 and 0.0755 and 0.0735 | 3.8 and 6.0 |
